In ChEMBL document CHEMBL1142810, “Discovery of a potent and selective 5-ht5A receptor antagonist by high-throughput chemistry” (Bioorg Med Chem Lett, 2005):

How the values were obtained:
[1] = target: T1, 5-hydroxytryptamine receptor 5A (Homo sapiens, UniProt P47898); assay: Binding affinity towards human 5-hydroxytryptamine receptor 5A expressed in CHO cells using the radioligand [3H]LSD; format: cell-based
[2] = Half life in guinea pig at a dose of 1 mg/kg upon intravenous administration; format: ADME, organism-based, Cavia porcellus; set-up: dose 1 mg/kg, route intravenous; settings: in vivo
[3] = Volume of distribution in guinea pig at a dose of 1 mg/kg upon intravenous administration; format: ADME, organism-based, Cavia porcellus; set-up: dose 1 mg/kg, route intravenous; settings: in vivo, read-out: Vdss
[4] = Bioavailability in guinea pig at a dose of 3 mg/kg upon subcutaneous administration; format: ADME, organism-based, Cavia porcellus; settings: in vivo, sc
[5] = Half life in guinea pig at a dose of 3 mg/kg upon subcutaneous administration; format: ADME, organism-based, Cavia porcellus; set-up: dose 3 mg/kg, route subcutaneous; settings: in vivo, sc
[6] = target: Sodium-dependent serotonin transporter (Homo sapiens, UniProt P31645); assay: Binding affinity towards human serotonin transporter expressed in LLCPK cells using the radioligand [3H]citalopram; format: cell-based
[7] = Blood clearance in guinea pig at a dose of 1 mg/kg upon intravenous administration; format: ADME, organism-based, Cavia porcellus; set-up: dose 1 mg/kg, route intravenous
[8] = Peak blood concentration in guinea pig at a dose of 3 mg/kg upon subcutaneous administration; format: ADME, organism-based, Cavia porcellus; set-up: dose 3 mg/kg, route subcutaneous; settings: sc
[9] = Half life in guinea pig at a dose of 3 mg/kg upon oral administration; format: ADME, organism-based, Cavia porcellus; set-up: dose 3 mg/kg, route oral; settings: in vivo
[10] = Peak blood concentration in guinea pig at a dose of 3 mg/kg upon oral administration; format: ADME, organism-based, Cavia porcellus; set-up: dose 3 mg/kg, route oral
[11] = Bioavailability in guinea pig at a dose of 3 mg/kg upon oral administration; format: ADME, organism-based, Cavia porcellus; settings: in vivo
[12] = target: T1, 5-hydroxytryptamine receptor 5A; assay: 5-CT-induced stimulation of [35S]GTP-gamma-S, binding to 5-Hydroxytryptamine receptor 5A expressed in HEK 293 cells with compound at 1 uM; format: functional, cell-based; settings: HEK293
D(3) dopamine receptor = D(3) dopamine receptor (Homo sapiens, UniProt P35462); assay: Binding affinity towards human dopamine receptor D3 expressed in CHO cells using the radioligand [125I]iodosulpiride; format: cell-based
D(2) dopamine receptor = D(2) dopamine receptor (Homo sapiens, UniProt P14416); assay: Binding affinity towards human dopamine receptor D2 expressed in CHO cells using the radioligand [125I]iodosulpiride; format: cell-based
[13] = target: 5-hydroxytryptamine receptor 7 (Homo sapiens, UniProt P34969); assay: Binding affinity towards human 5-hydroxytryptamine receptor 7 expressed in HEK 293 cells using the radioligand [3H]5-CT; format: cell-based, HEK293
[14] = target: 5-hydroxytryptamine receptor 2A (Homo sapiens, UniProt P28223); assay: Binding affinity towards human 5-hydroxytryptamine receptor 2A expressed in HEK 293 cells using the radioligand [3H]ketanserin; format: cell-based, HEK293
[15] = target: 5-hydroxytryptamine receptor 1E (Homo sapiens, UniProt P28566); assay: Binding affinity towards human 5-hydroxytryptamine receptor 1E expressed in HEK 293 cells using the radioligand [3H]5-HT; format: cell-based, HEK293
[16] = target: 5-hydroxytryptamine receptor 2B (Homo sapiens, UniProt P41595); assay: Binding affinity towards human 5-hydroxytryptamine receptor 2B expressed in HEK 293 cells using the radioligand [3H]5-HT; format: cell-based, HEK293
[17] = target: T2, Alpha-1B adrenergic receptor (Homo sapiens, UniProt P35368); assay: Binding affinity towards human alpha-1B-adrenergic receptor expressed in CHO cells using the radioligand [3H]prazosin; format: cell-based
T2 sequence (P35368 whole entry): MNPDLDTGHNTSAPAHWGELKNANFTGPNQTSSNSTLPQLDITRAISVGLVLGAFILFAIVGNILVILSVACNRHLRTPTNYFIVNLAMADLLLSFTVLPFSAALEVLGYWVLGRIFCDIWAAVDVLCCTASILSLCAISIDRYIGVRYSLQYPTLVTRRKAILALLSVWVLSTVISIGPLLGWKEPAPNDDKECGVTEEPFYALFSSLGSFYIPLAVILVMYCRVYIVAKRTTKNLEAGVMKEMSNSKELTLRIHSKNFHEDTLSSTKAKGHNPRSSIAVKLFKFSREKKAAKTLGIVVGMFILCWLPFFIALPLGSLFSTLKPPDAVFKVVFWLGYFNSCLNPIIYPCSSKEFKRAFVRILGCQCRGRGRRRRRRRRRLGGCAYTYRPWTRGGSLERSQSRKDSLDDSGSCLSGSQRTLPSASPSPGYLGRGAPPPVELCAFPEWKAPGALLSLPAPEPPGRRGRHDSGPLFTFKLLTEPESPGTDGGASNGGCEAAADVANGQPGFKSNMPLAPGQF

[18] = target: T3, 5-hydroxytryptamine receptor 2C (Homo sapiens, UniProt P28335); assay: Binding affinity towards human 5-hydroxytryptamine receptor 2C expressed in HEK 293 cells using the radioligand [3H]mesulergine; format: cell-based, HEK293
T3 sequence (P28335 whole entry): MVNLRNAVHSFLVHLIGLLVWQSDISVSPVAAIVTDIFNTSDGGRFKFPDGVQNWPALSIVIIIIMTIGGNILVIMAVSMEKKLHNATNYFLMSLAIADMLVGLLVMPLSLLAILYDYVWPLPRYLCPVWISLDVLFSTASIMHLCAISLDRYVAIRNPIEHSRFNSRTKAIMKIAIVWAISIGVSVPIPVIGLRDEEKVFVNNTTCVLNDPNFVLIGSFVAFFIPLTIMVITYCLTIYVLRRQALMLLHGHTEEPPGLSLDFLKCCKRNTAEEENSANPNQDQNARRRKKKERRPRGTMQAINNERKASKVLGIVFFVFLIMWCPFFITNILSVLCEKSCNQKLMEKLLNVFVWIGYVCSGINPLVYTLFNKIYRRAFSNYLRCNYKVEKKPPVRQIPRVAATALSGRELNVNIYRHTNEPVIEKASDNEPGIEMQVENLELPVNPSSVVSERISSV

[19] = target: 5-hydroxytryptamine receptor 1D (Homo sapiens, UniProt P28221); assay: Binding affinity towards human 5-hydroxytryptamine receptor 1D expressed in CHO cells using the radioligand [3H]5-HT; format: cell-based
[20] = target: 5-hydroxytryptamine receptor 6 (Homo sapiens, UniProt P50406); assay: Binding affinity towards human 5-hydroxytryptamine receptor 6 expressed in HeLa cells using the radioligand [3H]LSD; format: cell-based
[21] = target: T4, 5-hydroxytryptamine receptor 1F (Homo sapiens, UniProt P30939); assay: Binding affinity towards human 5-hydroxytryptamine receptor 1F expressed in HEK 293 cells using the radioligand [3H]5-HT; format: cell-based, HEK293
T4 sequence (P30939 whole entry): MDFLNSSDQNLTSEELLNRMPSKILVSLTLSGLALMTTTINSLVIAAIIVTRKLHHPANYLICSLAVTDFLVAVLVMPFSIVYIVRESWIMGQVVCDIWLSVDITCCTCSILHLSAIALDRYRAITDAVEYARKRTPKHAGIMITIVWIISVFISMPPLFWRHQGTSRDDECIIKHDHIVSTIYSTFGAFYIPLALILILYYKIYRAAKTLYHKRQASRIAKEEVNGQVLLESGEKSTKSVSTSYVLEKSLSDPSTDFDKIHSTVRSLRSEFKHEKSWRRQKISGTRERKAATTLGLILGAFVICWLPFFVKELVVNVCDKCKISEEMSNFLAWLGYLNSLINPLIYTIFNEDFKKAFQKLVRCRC

D(4) dopamine receptor = target: T5, D(4) dopamine receptor (Homo sapiens, UniProt P21917); assay: Binding affinity towards human dopamine receptor D4 expressed in CHO cells using the radioligand [125I]iodosulpiride; format: cell-based
T5 sequence (P21917 whole entry): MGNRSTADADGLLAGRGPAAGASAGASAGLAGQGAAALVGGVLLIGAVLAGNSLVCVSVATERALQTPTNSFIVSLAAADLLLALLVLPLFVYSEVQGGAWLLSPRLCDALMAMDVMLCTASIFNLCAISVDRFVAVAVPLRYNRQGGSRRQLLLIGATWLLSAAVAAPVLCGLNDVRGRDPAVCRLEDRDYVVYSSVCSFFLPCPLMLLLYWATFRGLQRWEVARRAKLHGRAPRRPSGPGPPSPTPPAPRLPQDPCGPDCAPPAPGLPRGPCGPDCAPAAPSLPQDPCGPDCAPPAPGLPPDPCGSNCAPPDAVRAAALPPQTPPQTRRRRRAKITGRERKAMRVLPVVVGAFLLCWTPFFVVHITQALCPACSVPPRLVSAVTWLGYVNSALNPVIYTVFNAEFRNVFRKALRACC

[22] = target: 5-hydroxytryptamine receptor 1B (Homo sapiens, UniProt P28222); assay: Binding affinity towards human 5-hydroxytryptamine receptor 1B expressed in CHO cells using the radioligand [3H]5-HT; format: cell-based
[23] = target: T6, 5-hydroxytryptamine receptor 1A (Homo sapiens, UniProt P08908); assay: Binding affinity towards human 5-hydroxytryptamine receptor 1A expressed in HEK 293 cells using the radioligand [3H]8-OH-DPAT; format: cell-based, HEK293
T6 sequence (P08908 whole entry): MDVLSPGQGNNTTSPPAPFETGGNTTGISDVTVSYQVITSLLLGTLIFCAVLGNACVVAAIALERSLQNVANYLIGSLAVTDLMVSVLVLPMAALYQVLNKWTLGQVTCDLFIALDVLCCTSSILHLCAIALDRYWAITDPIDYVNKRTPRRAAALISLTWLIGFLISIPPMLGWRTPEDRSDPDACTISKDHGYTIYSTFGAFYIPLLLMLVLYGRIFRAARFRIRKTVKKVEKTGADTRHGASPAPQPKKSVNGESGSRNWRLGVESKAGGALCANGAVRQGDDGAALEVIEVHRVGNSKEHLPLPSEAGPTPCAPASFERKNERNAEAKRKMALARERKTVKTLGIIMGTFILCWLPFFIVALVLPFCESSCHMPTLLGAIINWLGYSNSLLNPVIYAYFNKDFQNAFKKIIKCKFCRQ

T1 sequence (P47898 whole entry): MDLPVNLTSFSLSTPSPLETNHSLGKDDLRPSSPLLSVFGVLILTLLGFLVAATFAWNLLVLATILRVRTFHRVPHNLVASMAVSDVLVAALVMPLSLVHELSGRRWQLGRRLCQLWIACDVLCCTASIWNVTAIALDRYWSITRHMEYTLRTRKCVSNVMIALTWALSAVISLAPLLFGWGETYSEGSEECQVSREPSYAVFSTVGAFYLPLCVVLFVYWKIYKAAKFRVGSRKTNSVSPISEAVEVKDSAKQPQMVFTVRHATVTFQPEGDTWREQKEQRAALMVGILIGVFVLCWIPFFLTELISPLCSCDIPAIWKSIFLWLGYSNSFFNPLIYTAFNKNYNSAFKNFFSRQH
Sequence of 5-hydroxytryptamine receptor 7 (P34969 whole entry): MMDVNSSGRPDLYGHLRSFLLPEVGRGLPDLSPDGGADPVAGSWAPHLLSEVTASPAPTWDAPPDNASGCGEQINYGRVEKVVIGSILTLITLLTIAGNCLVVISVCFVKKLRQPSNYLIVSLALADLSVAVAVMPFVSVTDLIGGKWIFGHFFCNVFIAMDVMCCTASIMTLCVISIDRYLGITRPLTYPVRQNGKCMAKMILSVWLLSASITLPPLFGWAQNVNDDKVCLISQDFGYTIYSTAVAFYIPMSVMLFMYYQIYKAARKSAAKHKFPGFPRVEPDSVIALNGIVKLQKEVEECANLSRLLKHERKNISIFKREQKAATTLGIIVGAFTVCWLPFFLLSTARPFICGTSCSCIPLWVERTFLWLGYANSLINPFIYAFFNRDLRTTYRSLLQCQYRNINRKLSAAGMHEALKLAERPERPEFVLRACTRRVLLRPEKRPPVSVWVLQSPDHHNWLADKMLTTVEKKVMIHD
Sequence of D(3) dopamine receptor (P35462 whole entry): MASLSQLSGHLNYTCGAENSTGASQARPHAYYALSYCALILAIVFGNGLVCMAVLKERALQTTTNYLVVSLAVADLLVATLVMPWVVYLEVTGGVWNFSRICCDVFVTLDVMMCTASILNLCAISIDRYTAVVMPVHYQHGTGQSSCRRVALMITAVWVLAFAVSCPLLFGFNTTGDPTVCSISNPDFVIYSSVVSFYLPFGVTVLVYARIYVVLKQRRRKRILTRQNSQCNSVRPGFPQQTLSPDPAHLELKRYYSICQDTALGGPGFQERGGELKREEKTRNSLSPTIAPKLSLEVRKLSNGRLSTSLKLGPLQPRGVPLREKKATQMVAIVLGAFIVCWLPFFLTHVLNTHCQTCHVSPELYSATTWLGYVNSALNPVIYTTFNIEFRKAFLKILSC
Sequence of 5-hydroxytryptamine receptor 6 (P50406 whole entry): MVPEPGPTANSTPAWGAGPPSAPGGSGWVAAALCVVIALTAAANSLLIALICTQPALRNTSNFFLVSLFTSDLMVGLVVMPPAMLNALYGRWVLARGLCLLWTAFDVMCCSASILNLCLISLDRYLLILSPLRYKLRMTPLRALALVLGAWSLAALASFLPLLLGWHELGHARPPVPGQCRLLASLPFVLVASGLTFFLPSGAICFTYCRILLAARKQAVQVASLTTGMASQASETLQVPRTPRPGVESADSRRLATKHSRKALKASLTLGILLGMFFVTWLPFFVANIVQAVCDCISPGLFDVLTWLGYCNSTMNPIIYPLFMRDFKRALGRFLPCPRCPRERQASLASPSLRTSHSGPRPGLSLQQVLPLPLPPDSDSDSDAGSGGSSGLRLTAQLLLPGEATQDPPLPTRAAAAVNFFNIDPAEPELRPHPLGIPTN
Sequence of 5-hydroxytryptamine receptor 2A (P28223 whole entry): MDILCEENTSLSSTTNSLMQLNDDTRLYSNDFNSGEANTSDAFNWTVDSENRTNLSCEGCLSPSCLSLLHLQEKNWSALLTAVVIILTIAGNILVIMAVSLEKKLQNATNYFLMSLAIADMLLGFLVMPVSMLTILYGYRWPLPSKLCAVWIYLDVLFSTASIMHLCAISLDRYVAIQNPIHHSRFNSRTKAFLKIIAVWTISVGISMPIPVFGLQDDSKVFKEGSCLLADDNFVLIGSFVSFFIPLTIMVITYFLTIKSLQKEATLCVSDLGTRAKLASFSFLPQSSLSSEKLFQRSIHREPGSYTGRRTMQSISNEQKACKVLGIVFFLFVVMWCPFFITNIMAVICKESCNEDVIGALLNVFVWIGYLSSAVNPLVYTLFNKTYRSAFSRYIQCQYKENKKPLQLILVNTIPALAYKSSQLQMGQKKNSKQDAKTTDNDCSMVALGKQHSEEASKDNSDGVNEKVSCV
Sequence of 5-hydroxytryptamine receptor 1D (P28221 whole entry): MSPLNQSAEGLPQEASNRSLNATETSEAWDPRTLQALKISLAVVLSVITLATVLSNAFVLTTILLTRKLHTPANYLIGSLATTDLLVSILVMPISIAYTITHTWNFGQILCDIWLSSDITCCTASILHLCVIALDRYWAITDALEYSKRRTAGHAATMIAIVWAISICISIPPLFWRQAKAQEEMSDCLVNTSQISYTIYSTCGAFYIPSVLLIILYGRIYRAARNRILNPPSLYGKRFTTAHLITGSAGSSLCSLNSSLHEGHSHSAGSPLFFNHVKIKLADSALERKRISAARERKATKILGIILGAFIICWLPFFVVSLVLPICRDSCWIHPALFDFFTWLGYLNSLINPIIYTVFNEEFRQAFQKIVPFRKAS
Sequence of 5-hydroxytryptamine receptor 1E (P28566 whole entry): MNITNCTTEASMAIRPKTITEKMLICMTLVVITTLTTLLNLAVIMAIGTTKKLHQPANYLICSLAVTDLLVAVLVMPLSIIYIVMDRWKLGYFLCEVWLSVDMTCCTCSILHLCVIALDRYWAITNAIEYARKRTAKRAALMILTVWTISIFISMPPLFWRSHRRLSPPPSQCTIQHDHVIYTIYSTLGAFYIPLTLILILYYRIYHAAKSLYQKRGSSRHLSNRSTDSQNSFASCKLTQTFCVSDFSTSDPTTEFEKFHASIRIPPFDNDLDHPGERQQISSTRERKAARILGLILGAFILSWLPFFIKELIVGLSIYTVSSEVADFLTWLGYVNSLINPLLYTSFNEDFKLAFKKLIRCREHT
Sequence of 5-hydroxytryptamine receptor 1B (P28222 whole entry): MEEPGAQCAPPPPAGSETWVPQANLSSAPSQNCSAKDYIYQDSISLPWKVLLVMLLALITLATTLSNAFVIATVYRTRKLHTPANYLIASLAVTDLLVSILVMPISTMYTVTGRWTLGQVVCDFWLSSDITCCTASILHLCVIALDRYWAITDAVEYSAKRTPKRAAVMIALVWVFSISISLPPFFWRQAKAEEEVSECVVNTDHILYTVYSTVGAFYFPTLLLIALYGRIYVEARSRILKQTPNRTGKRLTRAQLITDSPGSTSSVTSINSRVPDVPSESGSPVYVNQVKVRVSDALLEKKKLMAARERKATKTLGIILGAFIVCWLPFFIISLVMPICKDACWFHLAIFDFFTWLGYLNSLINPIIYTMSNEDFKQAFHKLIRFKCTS
Sequence of D(2) dopamine receptor (P14416 whole entry): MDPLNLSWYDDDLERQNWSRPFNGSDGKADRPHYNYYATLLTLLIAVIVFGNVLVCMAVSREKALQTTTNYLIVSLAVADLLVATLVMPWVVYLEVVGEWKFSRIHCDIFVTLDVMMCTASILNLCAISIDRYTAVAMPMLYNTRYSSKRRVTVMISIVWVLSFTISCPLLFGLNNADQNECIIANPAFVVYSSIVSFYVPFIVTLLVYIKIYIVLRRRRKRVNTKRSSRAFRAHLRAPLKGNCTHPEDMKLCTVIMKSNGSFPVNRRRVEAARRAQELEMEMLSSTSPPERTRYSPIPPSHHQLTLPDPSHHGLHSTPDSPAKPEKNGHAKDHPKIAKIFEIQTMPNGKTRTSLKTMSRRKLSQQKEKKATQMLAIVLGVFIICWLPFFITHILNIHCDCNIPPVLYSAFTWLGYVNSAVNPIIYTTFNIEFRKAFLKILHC
Sequence of 5-hydroxytryptamine receptor 2B (P41595 whole entry): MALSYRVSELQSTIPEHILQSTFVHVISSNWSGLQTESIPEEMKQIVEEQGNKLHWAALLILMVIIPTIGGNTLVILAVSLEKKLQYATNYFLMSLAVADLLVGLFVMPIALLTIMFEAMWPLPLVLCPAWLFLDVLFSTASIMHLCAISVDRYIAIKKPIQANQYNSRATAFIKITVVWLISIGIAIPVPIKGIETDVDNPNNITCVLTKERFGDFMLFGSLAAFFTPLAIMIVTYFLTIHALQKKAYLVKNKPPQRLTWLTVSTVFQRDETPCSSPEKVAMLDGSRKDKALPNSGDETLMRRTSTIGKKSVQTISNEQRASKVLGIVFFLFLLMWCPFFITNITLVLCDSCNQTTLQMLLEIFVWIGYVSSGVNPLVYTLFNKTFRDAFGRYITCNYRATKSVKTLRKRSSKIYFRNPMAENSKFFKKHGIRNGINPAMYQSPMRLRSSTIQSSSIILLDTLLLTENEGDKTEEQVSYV
Sequence of Sodium-dependent serotonin transporter (P31645 whole entry): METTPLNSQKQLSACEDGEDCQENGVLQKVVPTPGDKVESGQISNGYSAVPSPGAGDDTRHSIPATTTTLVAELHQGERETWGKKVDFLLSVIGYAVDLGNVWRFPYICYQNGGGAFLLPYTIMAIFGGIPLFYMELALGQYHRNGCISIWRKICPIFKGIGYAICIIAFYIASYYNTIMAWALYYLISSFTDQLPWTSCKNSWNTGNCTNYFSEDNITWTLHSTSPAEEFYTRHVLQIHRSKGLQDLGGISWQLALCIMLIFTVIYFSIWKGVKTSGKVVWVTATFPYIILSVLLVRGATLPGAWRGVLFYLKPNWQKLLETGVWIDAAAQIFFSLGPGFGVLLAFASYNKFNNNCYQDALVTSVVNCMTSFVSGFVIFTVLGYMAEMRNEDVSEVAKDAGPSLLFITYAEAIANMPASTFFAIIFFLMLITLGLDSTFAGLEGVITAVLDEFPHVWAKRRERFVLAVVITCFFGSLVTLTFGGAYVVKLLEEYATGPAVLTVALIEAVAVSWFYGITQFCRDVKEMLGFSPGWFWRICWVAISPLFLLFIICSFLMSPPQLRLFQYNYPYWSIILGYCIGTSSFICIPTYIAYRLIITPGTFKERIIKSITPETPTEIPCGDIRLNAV

CN(C)CCN(Cc1ccc(-c2ccc(CNCCc3ccccc3)cc2)nc1)C(=O)/C=C/c1ccccc1 showed a Ki [1] of 25.1 nM.
CN(C)CCN(Cc1ccc(-c2ccc(CNCCc3ccccc3)cc2)cc1)C(=O)C1CC1c1ccccc1 (centres undefined) showed a Ki [1] of 79.4 nM.
For CN(C)CCN(Cc1ccc(-c2ccc(CNCCc3ccccc3)cc2)cc1)C(=O)Nc1ccccc1, the Ki [1] was 398 nM.
For CN(C)CCN(Cc1ccc(-c2ccc(CNCCc3ccccc3)cc2)cc1)C(=O)CCC1CCCC1.Cl.Cl, the half-life [2] was 3.5 h, the Vd [3] was 6.1 L/kg and the bioavailability [4] was 63%. It also gave a half-life [5] of 2.2 h, a Ki [6] of 25.1 nM and a clearance [7] of 22 mL/min/kg. For the same molecule, the Cmax [8] was 388 ng/mL, the half-life [9] was 3.9 h and the Cmax [10] was 20 ng/mL. It also gave a bioavailability [11] of 4%.
CN(C)CCN(Cc1ccc(-c2ccc(CNC3Cc4ccccc4C3)cc2)cc1)C(=O)CCC1CCCC1 gave a Ki [1] of 251 nM.
Molecule c1ccc(CCNCc2ccc(-c3ccc(CNC4CCN(Cc5ccccc5)CC4)cc3)cc2)cc1 has a Ki [1] of 126 nM.
O=C(c1ccc2c(c1)OCO2)N(Cc1ccc(-c2ccc(CNCCc3ccccc3)cc2)cc1)Cc1cccnc1 gave a Ki [1] of 200 nM.
In the case of CN(C)CCN(Cc1ccc(-c2ccc(CNCCc3ccccc3)cn2)cc1)C(=O)CCC1CCCC1, the Ki [1] is reported as 12.6 nM.
For CN(C)CCN(Cc1ccc(-c2ccc(CNCCc3ccccc3)cc2)cc1)C(=O)CCC1CCCC1, the pKb [12] was 8.
Work on CN(C)CCN(Cc1ccc(-c2ccc(CNCCc3ccccc3)cc2)cc1)C(=O)/C=C/c1ccccc1 yielded a Ki (D(3) dopamine receptor) of 1000 nM, a Ki (D(2) dopamine receptor) of 794 nM and a Ki [13] of 1000 nM. For the same molecule, the Ki [14] was 398 nM, the Ki [15] was > 10000 nM and the Ki [16] was 1260 nM. It also gave a Ki [17] of 200 nM, a Ki [18] of 631 nM and a Ki [19] of 158 nM. For the same molecule, the Ki [1] was 25.1 nM, the Ki [20] was > 7940 nM and the Ki [21] was > 10000 nM. The Ki (D(4) dopamine receptor) was 1260 nM, the Ki [22] was 631 nM and the Ki [23] was 794 nM.
c1ccc(CCNCc2ccc(-c3cccc(CNC4CCN(Cc5ccccc5)CC4)c3)cc2)cc1 showed a Ki [1] of 200 nM.
With O=C(/C=C/c1ccccc1)N(Cc1ccc(-c2ccc(CNCCc3ccccc3)cc2)cc1)Cc1cccnc1 the Ki (D(3) dopamine receptor) was 1580 nM, the Ki (D(2) dopamine receptor) was 1260 nM and the Ki [13] was 1260 nM. The Ki [14] was 794 nM, the Ki [15] was > 10000 nM and the Ki [16] was 2000 nM. It also gave a Ki [17] of 316 nM, a Ki [18] of 1000 nM and a Ki [19] of 1260 nM. The Ki [1] was 50.1 nM, the Ki [20] was > 2000 nM and the Ki [21] was > 1000 nM. It also gave a Ki (D(4) dopamine receptor) of 1580 nM, a Ki [22] of 631 nM and a Ki [23] of 1000 nM.
